This passage reports IC50 and Kd results from US9242981B2, “Fused pyrazole derivatives as novel ERK inhibitors” (Merck Sharp & Dohme Corp., priority 2010, dated 2016).

Assay [1] addresses Mouse ERK2 protein (Mus musculus (Mouse), UniProt P63085). The assay is described as follows: Coupled MEK1/ERK2 IMAP assay or Active ERK2 IMAP assay. In kind it is biochemical. Conditions: Table 2, 30 μM ATP.
Assay [2] has as its target ERK protein (Mus musculus, UniProt P63085). The assay is described as follows: TdF (Temperature Dependence Fluorescence, thermal shift) assay for ERK. In kind it is binding. To be noted: Table 2; 3 μM ERK protein. An excerpt: The SAR (Structure Activity Relationship) for ERK ligands covered by this invention was interrogated using the TdF (Temperature Dependence Fluorescence) assay or best known as thermal shift assay. (M. W. Pantoliano, et al., “High-density miniaturized thermal shift assays as a general strategy for drug discovery,” J. Biomol. Screen 6 (2001) 429-440) The TdF assay was mainly conducted in the 96-well based CHROMO-4 real time fluorescence plate reader (BioRad). The Sypro Orange (Sigma-Aldrich), environmentally sensitive fluorescence dye, was used to monitor the protein folding-unfolding transition. Protein-ligand binding was gauged by the change (or shift) in the unfolding transition temperature (ΔTm) acquired at protein alone with respect to protein in the presence of ligand of interest.
Compound of interest was first prepared in DMSO stock (typical concentration: 10 mM). […] Final percentage of DMSO resided in the sample was 2%. The sample plate was heated from 30° C. to 90° C. with thermal ramping rate of 1° C./min. The fluorescence signals were acquired with excitation and emission wavelengths centered at 490 and 560 nm respectively. The instrument thermal stability was ±0.2° C. The melting temperatures (Tm) for ERK protein under aforementioned conditions occurred at […] and 64.8±0.2° C. respectively.
The derivation of TdF-based ligand binding affinity constant (Kd) followed closely those previously formulated by Brandts and Lin. (J. F. Brandts, L.-N. Lin, “Study of strong to ultratight protein interactions using differential scanning calorimetry,” Biochemistry 29 (1990) 6927-6940). In brief, the binding constant of the ligand at the Tm is expressed as below:
[formula] where T0 is the midpoint of unfolding for unliganded protein and Tm is the midpoint of unfolding in presence of ligand. [LTm] is free ligand at Tm. The ΔHu and ΔCpu are the enthalpy of unfolding and heat capacity change of unfolding for the protein respectively. Following algorithm derived by Winsor and coworker, the T0, ΔHu and ΔCpu can be determined separately from nonlinear regression fitting the protein alone melting curve:
[formula] where F(T) is the observed fluorescence intensity at any temperature T, Yn, and Yu are the predicted fluorescence intensities for fully folded and unfolded protein, respectively; mn and mu are slope correction for changes in Yn and Yu with respect to changes in temperature (analogously replace T0 with Tm in the above equation for liganded protein to yield Tm). (Mayhood, T. W., Windsor, W. T., “Ligand binding affinity determined by temperature-dependent circular dichroism: Cyclin-dependent kinase 2 inhibitors,” Analytical Biochemistry 345 (2005) 187-197).
[formula] where ΔHL (T) is the van't Hoff enthalpy of ligand binding at temperature T and ΔCpL is the heat capacity upon ligand binding. For simplicity, the ΔCpL and ΔHL (T) were set to zero and -7 kcal/mol respectively. […]

Sequence of Mouse ERK2 protein (P63085 whole entry): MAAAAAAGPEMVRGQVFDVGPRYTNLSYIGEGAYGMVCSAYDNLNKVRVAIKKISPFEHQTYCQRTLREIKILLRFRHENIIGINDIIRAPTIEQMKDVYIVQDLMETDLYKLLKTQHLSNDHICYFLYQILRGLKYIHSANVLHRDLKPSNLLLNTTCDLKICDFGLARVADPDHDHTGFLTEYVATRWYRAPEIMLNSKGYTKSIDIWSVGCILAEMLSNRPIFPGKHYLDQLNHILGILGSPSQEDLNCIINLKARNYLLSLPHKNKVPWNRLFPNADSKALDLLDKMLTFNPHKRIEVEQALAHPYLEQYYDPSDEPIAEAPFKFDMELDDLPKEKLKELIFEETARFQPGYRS
Sequence of ERK protein (P63085 2-358 limits assumed): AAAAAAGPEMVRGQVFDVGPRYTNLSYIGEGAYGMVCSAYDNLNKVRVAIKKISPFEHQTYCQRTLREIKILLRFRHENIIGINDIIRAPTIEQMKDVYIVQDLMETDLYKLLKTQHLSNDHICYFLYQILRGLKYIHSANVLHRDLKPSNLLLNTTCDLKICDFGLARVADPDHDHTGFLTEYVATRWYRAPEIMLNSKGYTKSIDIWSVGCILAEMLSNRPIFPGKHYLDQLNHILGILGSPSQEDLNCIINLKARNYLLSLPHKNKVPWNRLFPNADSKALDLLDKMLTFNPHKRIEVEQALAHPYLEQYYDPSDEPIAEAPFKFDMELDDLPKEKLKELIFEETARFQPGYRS

What is called IC50 is the concentration that gives 50% inhibition. What is called Kd is a measure of binding affinity in units of concentration. With `COc1cccc(F)c1CN1CCC[C@@H](NC(=O)N2CCc3[nH]nc(-c4ccc5nccn5c4)c3C2)C1` [Compound 113, N-[1-[(2-fluoro-6-methoxyphenyl)methyl]-3(R)-piperidinyl]-1,4,6,7-tetrahydro-3-(imidazo[1,2-a]pyridin-6-yl)-5H-pyrazolo[4,3-c]pyridine-5-carboxamide], in assay [1], the IC50 amounted to 4.2 nM. For the same compound, the dissociation constant Kd in assay [2] is 0.03 nM.

On to `COc1cccc(F)c1CN1CC(NC(=O)N2CCc3[nH]nc(-c4ccnc(C)c4)c3C2)CC(C(F)(F)F)C1` (stereo not shown) [Compound 123, N-[1-[(2-fluoro-6-methoxyphenyl)methyl]-5-(trifluoromethyl)-3-piperidinyl]-1,4,6,7-tetrahydro-3-(2-methyl-4-pyridinyl)-5H-pyrazolo[4,3-c]pyridine-5-carboxamide], for which it took 4.3 nM to reach half-maximal inhibition in assay [1] (IC50). Moreover, in assay [2], the Kd amounted to 0.06 nM.
